{
  "source": "patent EP0689844A1",
  "about": "“Complexes of vinpocetine formed with cyclodextrins, process for their preparation and pharmaceutical compositions containing them” (TECNIMEDE-SOCIEDADE TECNICO-MEDICINAL, S.A., priority 1994, dated 1996)",
  "key": {"[1]": {"test": "solubility of vinpocetine in cyclodextrin solutions of different concentrations (phase solubility, HPLC)", "assay_type": "physicochemical", "conditions": "aqueous cyclodextrin solution, 37 °C, aqueous with cosolvent or surfactant or cyclodextrin, thermodynamic from solid", "experimental": "10 mg of vinpocetine, cyclodextrin in different amounts and 10 ml of distilled water were charged into 20 ml test tubes. After closing, the tubes were agitated for 24 hours at 37°C, thereafter the samples were filtrated and the filtrates were analysed by HPLC (High Performance Liquid Chromatography) in 0.1N HCl solution."}, "[2]": {"conditions": "p.o.; cited from earlier work"}, "[3]": {"conditions": "cited from earlier work"}},
  "note": "Read-outs that look alike come from different tables or passages of the source.",
  "data": [
    {"smiles": "CCOC(=O)C1=C[C@]2(CC)CCCN3CCc4c(n1c1ccccc41)[C@@H]32", "note": "[vinpocetine, eburnamenine-14-carboxylic acid ethyl ester]", "values": [
      {"measurement": "solubility at 24 h", "setting": "[1]; HP-β-cyd 25.0 mM in distilled water", "result": 5.5, "unit": "µg/mL"},
      {"measurement": "solubility at 24 h", "setting": "[1]; HP-β-cyd 50.0 mM in distilled water", "result": 12.8, "unit": "µg/mL"},
      {"measurement": "solubility at 24 h", "setting": "[1]; HP-β-cyd 100.0 mM in distilled water", "result": 23.2, "unit": "µg/mL"},
      {"measurement": "solubility at 24 h", "setting": "[1]; γ-cyd 12.5 mM in distilled water", "result": 6.1, "unit": "µg/mL"},
      {"measurement": "solubility at 24 h", "setting": "[1]; γ-cyd 25.0 mM in distilled water", "result": 12, "unit": "µg/mL"},
      {"measurement": "solubility at 24 h", "setting": "[1]; γ-cyd 50.0 mM in distilled water", "result": 24.4, "unit": "µg/mL"},
      {"measurement": "absolute bioavailability", "setting": "[2]", "result": 6.7, "unit": "%"},
      {"measurement": "solubility", "setting": "[3]; in ethanol and 0.1N HCl", "result": "dissolves well"},
      {"measurement": "solubility", "setting": "[3]; in water, ethyl ether and hexane", "result": "poorly soluble"}
    ]}
  ]
}
